In article PMC8276662, “Synergy of alanine and gentamicin to reduce nitric oxide for elevating killing efficacy to antibiotic-resistant Vibrio alginolyticus” (Virulence, 2021):

Molecular target: T1, CysJ (rCysJ; NOS-like protein) (Vibrio alginolyticus, UniProt A0A2I3CBL6)
T1 construct: dimer by blue native PAGE
T1 sequence (A0A2I3CBL6 1-623): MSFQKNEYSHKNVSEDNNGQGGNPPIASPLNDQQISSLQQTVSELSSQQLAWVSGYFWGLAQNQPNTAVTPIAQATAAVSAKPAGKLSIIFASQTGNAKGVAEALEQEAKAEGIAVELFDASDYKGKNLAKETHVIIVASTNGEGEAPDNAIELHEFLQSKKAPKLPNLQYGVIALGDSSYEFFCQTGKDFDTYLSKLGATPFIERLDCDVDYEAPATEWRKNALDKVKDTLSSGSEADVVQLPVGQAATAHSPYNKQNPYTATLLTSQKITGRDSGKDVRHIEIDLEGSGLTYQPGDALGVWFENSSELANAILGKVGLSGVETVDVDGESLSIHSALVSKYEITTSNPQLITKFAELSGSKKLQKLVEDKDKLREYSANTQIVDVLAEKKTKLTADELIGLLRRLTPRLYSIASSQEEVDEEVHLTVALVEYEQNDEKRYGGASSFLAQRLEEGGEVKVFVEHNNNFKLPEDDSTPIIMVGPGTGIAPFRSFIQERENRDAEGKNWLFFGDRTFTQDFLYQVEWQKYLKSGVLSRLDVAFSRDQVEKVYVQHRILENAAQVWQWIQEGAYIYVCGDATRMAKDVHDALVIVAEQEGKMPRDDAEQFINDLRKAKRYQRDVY
Test: colorimetric nitric oxide synthase activity kit, A530
Type: biochemical
Details: 0.5 mM L-NMMA, preincubated 30 C 2 h (as described for lysate proteins); assay 37 C 15 min; mode not stated

SMILES: CNC(=N)NCCC[C@H](N)C(=O)O [L-NMMA]
- activity of NOS was reduced: When L-NMMA was used, activity of NOS was reduced (Figure 8b).
